From ChEMBL document CHEMBL1149951, “Antileukaemic properties of 12-hydroxydaphnetoxin derivatives” (Bioorg Med Chem Lett, 1994)
The source made the active and inactive calls. No cut-off for these calls is given here.

Assays:
Mus musculus [1] = assay: In vivo activity against mice infected with murine p388 lymphocytic leukemia cells at a ip dose of 0.1 mg/kg; assay type: functional; conditions: route intraperitoneal
Mus musculus [2] = assay: In vivo activity against mice infected with murine p388 lymphocytic leukemia cells at a ip dose of 0.4 mg/kg; assay type: functional; conditions: route intraperitoneal
Mus musculus [3] = assay: In vivo activity against mice infected with murine p388 lymphocytic leukemia cells at a ip dose of 0.2 mg/kg; assay type: functional; conditions: route intraperitoneal
Mus musculus [4] = assay: In vivo activity against mice infected with murine p388 lymphocytic leukemia cells at a ip dose of 0.05 mg/kg; assay type: functional; conditions: route intraperitoneal
Mus musculus [5] = assay: In vivo activity against mice infected with murine p388 lymphocytic leukemia cells at a ip dose of 0.8 mg/kg; assay type: functional; conditions: route intraperitoneal
[6] = In vivo activity against mice infected with murine p388 lymphocytic leukemia cells at a ip dose of 0.8 mg/kg; Toxic; assay type: toxicity, organism-based; parameters: dose 0.8 mg/kg, route intraperitoneal; conditions: mouse
Mus musculus [7] = assay: In vivo activity against mice infected with murine p388 lymphocytic leukemia cells at a ip dosage range of 0.05-1.6 mg/kg; Inactive; assay type: functional, organism-based
[8] = In vivo activity was against mice infected with murine p388 lymphocytic leukemia cells at a ip dose of 0.8 mg/kg; Toxic; assay type: toxicity, organism-based; parameters: dose 0.8 mg/kg, route intraperitoneal; conditions: mouse
[9] = In vivo activity against mice infected with murine p388 lymphocytic leukemia cells at a ip dose of 0.4 mg/kg; Toxic; assay type: toxicity, organism-based; parameters: dose 0.4 mg/kg, route intraperitoneal; conditions: mouse
Mus musculus [10] = assay: In vivo activity against mice infected with murine p388 lymphocytic leukemia cells at a ip dose of 0.2 mg/kg; Toxic; assay type: functional, organism-based; parameters: dose 0.2 mg/kg
[11] = In vivo activity against mice infected with mice infected with murine p388 lymphocytic leukemia cells at a ip dose of 0.4 mg/kg; Toxic; assay type: toxicity, organism-based; parameters: dose 0.4 mg/kg, route intraperitoneal; conditions: mouse

Compound	ILS at 0.1 mg/kg (Mus musculus [1]) [%]	ILS at 0.4 mg/kg (Mus musculus [2]) [%]	ILS at 0.2 mg/kg (Mus musculus [3]) [%]	ILS at 0.05 mg/kg (Mus musculus [4]) [%]	ILS [6]	ILS (Mus musculus [7])	further results
CC(C)C12OC3(c4ccccc4)OC1[C@@H]1[C@@H]4O[C@]4(CO)[C@@H](O)[C@]4(O)C(=O)CC[C@@]4(C)C1(O3)[C@H](C)[C@H]2OC(=O)CCCCc1ccccc1 (stereo partly drawn)	< 20	29	< 20	< 20			ILS at 0.8 mg/kg (Mus musculus [5]): 27%
CC(C)C12OC3(c4ccccc4)OC1[C@@H]1[C@@H]4O[C@]4(CO)[C@@H](O)[C@]4(O)C(=O)C=C[C@@]4(C)C1(O3)[C@H](C)[C@H]2OC(=O)CCc1ccccc1 (stereo partly drawn)	< 20	40	38	< 20	Toxic		
C=C(C)C12OC3(c4ccccc4)OC1[C@@H]1[C@@H]4O[C@@]45COC(C)(C)O[C@H]5[C@]4(O)C(=O)C=C[C@@]4(C)C1(O3)[C@H](C)[C@H]2O (stereo partly drawn)						inactive	
C=C(C)C12OC3(c4ccccc4)OC1[C@@H]1[C@@H]4O[C@]4(CO)[C@@H](O)[C@]4(O)C(=O)C=C[C@@]4(C)C1(O3)[C@H](C)[C@H]2OC(=O)/C=C/C=C/c1ccccc1 (stereo partly drawn)	33		67	33			ILS [8]: Toxic; ILS [9]: Toxic
C=C(C)C12OC3(c4ccccc4)OC1[C@@H]1[C@@H]4O[C@@]45COC(C)(C)O[C@H]5[C@]4(O)C(=O)C=C[C@@]4(C)C1(O3)[C@H](C)[C@H]2OC(=O)/C=C/C=C/c1ccccc1 (stereo partly drawn)						inactive	
C=C(C)C12OC3(c4ccccc4)OC1[C@@H]1[C@@H]4O[C@]4(CO)[C@@H](O)[C@]4(O)C(=O)C=C[C@@]4(C)C1(O3)[C@H](C)[C@H]2OC(=O)CCCCCCCCC (stereo partly drawn)	< 20	42	< 20	< 20			ILS at 0.8 mg/kg (Mus musculus [5]): 43%
C=C(C)C12OC3(c4ccccc4)OC1[C@@H]1[C@@H]4O[C@]4(CO)[C@@H](O)[C@]4(O)C(=O)C(C)=C[C@H]4C1(O3)[C@H](C)[C@H]2OC(=O)/C=C/C=C/C=C/CCC (stereo partly drawn) [GNIDITRIN]	68			44	Toxic		ILS (Mus musculus [10]): Toxic; ILS [9]: Toxic
CC(C)C12OC3(c4ccccc4)OC1[C@@H]1[C@@H]4O[C@]4(CO)[C@@H](O)[C@]4(O)C(=O)CC[C@@]4(C)C1(O3)[C@H](C)[C@H]2OC(=O)CCc1ccccc1 (stereo partly drawn)	< 20	25	< 20	< 20			ILS at 0.8 mg/kg (Mus musculus [5]): 30%
C=C(C)C12OC3(c4ccccc4)OC1[C@@H]1[C@@H]4O[C@]4(CO)[C@@H](O)[C@]4(O)C(=O)C=C[C@@]4(C)C1(O3)[C@H](C)[C@H]2OC(=O)/C=C/C=C/CCCCC (stereo partly drawn)	33		42	33	Toxic		ILS [9]: Toxic
C=C(C)C12OC3(c4ccccc4)OC1[C@@H]1[C@@H]4O[C@@]45COC(C)(C)O[C@H]5[C@]4(O)C(=O)C=C[C@@]4(C)C1(O3)[C@H](C)[C@H]2OC(=O)CCCCCCCCC (stereo partly drawn)						inactive	
C=C(C)C12OC3(c4ccccc4)OC1[C@@H]1[C@@H]4O[C@]4(CO)[C@@H](O)[C@]4(O)C(=O)C=C[C@@]4(C)C1(O3)[C@H](C)[C@H]2O (stereo partly drawn)						inactive	
C=C(C)C12OC3(c4ccccc4)OC1[C@@H]1[C@@H]4O[C@@]45COC(C)(C)O[C@H]5[C@]4(O)C(=O)C=C[C@@]4(C)C1(O3)[C@H](C)[C@H]2OC(=O)/C=C/c1ccccc1 (stereo partly drawn)						inactive	
C=C(C)C12OC3(c4ccccc4)OC1[C@@H]1[C@@H]4O[C@]4(CO)[C@@H](O)[C@]4(O)C(=O)C=C[C@@]4(C)C1(O3)[C@H](C)[C@H]2OC(=O)c1ccccc1 (stereo partly drawn)	< 20	40	32	< 20	Toxic		
CCCCCCCCCC(=O)O[C@@H]1[C@@H](C)C23OC4(c5ccccc5)OC([C@@H]2[C@@H]2O[C@]2(CO)[C@@H](O)[C@]2(O)C(=O)C=C[C@@]32C)C1(C(C)C)O4 (stereo partly drawn)	< 20	30	< 20	< 20			ILS at 0.8 mg/kg (Mus musculus [5]): 27%
C=C(C)C12OC3(c4ccccc4)OC1[C@@H]1[C@@H]4O[C@]4(CO)[C@@H](O)[C@]4(O)C(=O)C=C[C@@]4(C)C1(O3)[C@H](C)[C@H]2OC(=O)/C=C/c1ccccc1 (stereo partly drawn)	60		73	< 20	Toxic		ILS [11]: Toxic
C=C(C)C12OC3(c4ccccc4)OC1[C@@H]1[C@@H]4O[C@@]45COC(C)(C)O[C@H]5[C@]4(O)C(=O)C=C[C@@]4(C)C1(O3)[C@H](C)[C@H]2OC(=O)/C=C/C=C/C=C/CCC (stereo partly drawn)						inactive	
CC(C)C12OC3(c4ccccc4)OC1[C@@H]1[C@@H]4O[C@]4(CO)[C@@H](O)[C@]4(O)C(=O)C=C[C@@]4(C)C1(O3)[C@H](C)[C@H]2OC(=O)CCCCc1ccccc1 (stereo partly drawn)	< 20	43	43	< 20	Toxic		
C=C(C)C12OC3(c4ccccc4)OC1[C@@H]1[C@@H]4O[C@@]45COC(C)(C)O[C@H]5[C@]4(O)C(=O)C=C[C@@]4(C)C1(O3)[C@H](C)[C@H]2OC(=O)c1ccccc1 (stereo partly drawn)						inactive	
CC(C)C12OC3(c4ccccc4)OC1[C@@H]1[C@@H]4O[C@]4(CO)[C@@H](O)[C@]4(O)C(=O)CC[C@@]4(C)C1(O3)[C@H](C)[C@H]2OC(=O)CCCCCCCCc1ccccc1 (stereo partly drawn)	< 20	25	< 20	< 20			ILS at 0.8 mg/kg (Mus musculus [5]): 25%
CC(C)C12OC3(c4ccccc4)OC1[C@@H]1[C@@H]4O[C@]4(CO)[C@@H](O)[C@]4(O)C(=O)C=C[C@@]4(C)C1(O3)[C@H](C)[C@H]2OC(=O)c1ccccc1 (stereo partly drawn)	30	48	42	< 20	Toxic		
C=C(C)C12OC3(c4ccccc4)OC1[C@@H]1[C@@H]4O[C@@]45COC(C)(C)O[C@H]5[C@]4(O)C(=O)C=C[C@@]4(C)C1(O3)[C@H](C)[C@H]2OC(=O)/C=C/C=C/CCCCC (stereo partly drawn)						inactive	
